Data taken from patent publication US5843992A, “Epoxysuccinic acid derivatives” (Nippon Chemiphar Co., Ltd., priority 1995, dated 1998).
pIC50: −log10 of the molar value. Read-outs that look alike come from different tables or passages of the source.

Key:
cathepsin B [1] = target: T1, cathepsin B (Rattus norvegicus, UniProt P00787); assay: Cathepsin B inhibitory action (lysosome fraction, Z-Arg-Arg-MCA); assay type: biochemical, rat (Wistar); conditions: pH 6.0, 30° C.; read-out: Cathepsin B Inhibition (IC50)
T1 construct: Preparation of Rat Liver Lysosome Fraction; from tissue; host or cells: rat liver lysosome fraction (male Wistar rat)
Protocol: Male rat of Wistar strain was killed by exsangulnation and a ice-chilled physiological saline was introduced into portal vein for circulation. Then, its liver was taken out. Thereafter, the following procedures were performed at 4° C.
The liver was minced by scissors. Five grams of minced liver were homogenized in a Potter type Teflon Homogenizer after addition of 0.25M aqueous sucrose solution in a volume as much as nine times. The homogenized mixture was centrifuged for 10 minutes at 800 G. The resulting supernatant was further centrifuged at 12,000 G for 20 minutes. The precipitate was homogenized in 25 mL of 0.25M aqueous sucrose solution, and then centrifuged for 20 minutes at 12,000 G. The resulting precipitate was further homogenized after 100 mL of 0.25M aqueous sucrose solution. Thus, a lysosome fraction was obtained.
To 0.25 mL of a solution (pH: 6.0) containing 352 mM KH2 PO4, 48 mM Na2 HPO4, 5.32 mM EDTA.2 Na and 10 mM L-cysteine were added 0.1 mL of the lysosome fraction, 5 μL of the test compound solution, and 0.545 mL of distilled water. The mixture was preincubated at 30° C. for 15 minutes. Thereafter, the reaction was started by the addition of 0.1 mL of a solution of 50 μM carbobenzoxy-L-arginine-L-arginine-4-methylcoumaryl-7-amide (Z-Arg-Arg-MCA, substrate). The reaction was performed at 30° C. for 20 minutes, and then terminated by addition of 1 mL of an aqueous solution (pH: 4.3) containing 100 mM sodium monochloroacetate, 30 mM sodium acetate and 70 mM acetic acid. The finally obtained solution was subjected to measurement of fluorescence strength (excitation wavelength: 380 nm, emission wavelength: 460 nm).

[2] = tested on: ICR mouse calvaria (bone resorption); assay: Bone resorption inhibitory activity (PTH-stimulated calcium release from mouse calvaria); assay type: cell-based; conditions: read-out: Bone Resorption Inhibition, inhibition ratio (%)
Protocol: From ICR mouse (age: 6 to 7 days), calvaria was taken under aseptic conditions. The calvaria was divided along the median line into two parts after its connective tissue was removed. In a culture medium (modified BGjb medium, containing 5% inactivated bovine fetal serum) in an amount of 1 mL per a pair of bones, a pre-culture was performed for 24 hours under the conditions of 5% CO2 and 37° C. After the pre-culture was complete, each one of bone was placed in 0.5 mL of the same culture medium containing the test compound of different concentration, and cultured for 72 hours in the presence of 3×10^-7 M parathyroid hormone (PTH). For the control, culture was performed in the same manner except for using neither test compound nor PTH.
After the culture was complete, the amount of calcium released in the supernatant of the culture medium in the 72 hour culture as well as the amount of calcium contained in the bone (dissolved in 1 mL of 6N hydrochloric acid) were determined by ortho-cresol phthalein complexon (OCPC) method.
The calcium release ratio (%) was calculated according to the following equation: [formula]
The inhibition ratio (%) of bone resorption by the test compound was calculated according to the following equation: [formula]

cathepsin L = cathepsin L (Rattus norvegicus, UniProt P07154); assay: Cathepsin L inhibitory action (rat liver lysosome fraction, Z-Phe-Arg-MCA); assay type: biochemical, rat (Wistar); conditions: pH 5.5, 30° C., in the presence of 10^-7 M CA-074; read-out: Cathepsin L Inhibition IC50
cathepsin B [3] = target: T1, cathepsin B; conditions: 10^-7 M CA-074, pH 5.5, Z-Phe-Arg-MCA; cited from earlier work
[4] = Concentration of Test Comp. 10^-4 M, 72 hours, 3×10^-7 M PTH
[5] = Concentration of Test Comp. 10^-5 M, 72 hours, 3×10^-7 M PTH
[6] = Concentration of Test Comp. 10^-6 M, 72 hours, 3×10^-7 M PTH

T1 sequence (P00787 80-339): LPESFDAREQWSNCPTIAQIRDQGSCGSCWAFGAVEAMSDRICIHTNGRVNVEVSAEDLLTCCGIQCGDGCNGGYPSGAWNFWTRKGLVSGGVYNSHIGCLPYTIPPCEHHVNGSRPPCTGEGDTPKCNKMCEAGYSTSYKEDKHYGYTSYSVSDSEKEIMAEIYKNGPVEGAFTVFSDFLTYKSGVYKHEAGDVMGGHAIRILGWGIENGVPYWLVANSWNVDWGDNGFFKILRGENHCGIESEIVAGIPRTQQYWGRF
Sequence of cathepsin L (P07154 114-334): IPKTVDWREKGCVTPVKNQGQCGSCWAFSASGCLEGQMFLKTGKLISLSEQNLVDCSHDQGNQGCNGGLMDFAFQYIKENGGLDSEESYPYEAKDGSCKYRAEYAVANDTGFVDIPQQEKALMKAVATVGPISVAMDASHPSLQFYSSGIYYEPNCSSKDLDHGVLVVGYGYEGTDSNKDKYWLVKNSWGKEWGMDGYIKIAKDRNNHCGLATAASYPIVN

| Structure (SMILES) | pIC50 (cathepsin B [1]) | inhibition at 1 µM ([2]; 72 h) [%] | inhibition at 10 µM ([2]; 72 h) [%] | inhibition at 100 µM ([2]; 72 h) [%] | pIC50 (cathepsin L) | inhibition at 100 µM [2, 4] [%] | inhibition at 10 µM [2, 5] [%] | inhibition at 1 µM [2, 6] [%] | cathepsin B activity inhibition (cathepsin B [3]) |
| --- | --- | --- | --- | --- | --- | --- | --- | --- | --- |
| O=C(O)[C@H]1O[C@@H]1C(=O)NC(Cc1ccccc1)Cc1ccccc1 | 6.70 | – | – | – | – | – | – | – | – |
| O=C(O)[C@H]1O[C@@H]1C(=O)NC(c1ccccc1)c1ccccc1 | 6.64 | 90 | 82 | 95 | 6.62 | – | – | – | – |
| CC(C)CCC(CCC(C)C)NC(=O)[C@H]1O[C@@H]1C(=O)O | 6.51 | 63 | 87 | 82 | 7.72 | – | – | – | – |
| CC(C)CCNC(=O)[C@H]1O[C@@H]1C(=O)O (relative stereo) [Comparison X, reference compound] | – | – | – | – | 7.11 | 66 | 40 | 25 | – |
| O=C(O)[C@H]1O[C@@H]1C(=O)NCc1ccccc1 (relative stereo) [Comparison Y, reference compound] | – | – | – | – | 6.46 | 44 | 38 | 21 | – |
| CCCNC(=O)[C@H]1O[C@@H]1C(=O)N[C@H](C(=O)N1CCC[C@H]1C(=O)O)[C@@H](C)CC [CA-074] | – | – | – | – | – | – | – | – | completely inhibited |
